Data published in patent publication US10053443B2, “2-phenylbenzofuran derivatives, method for preparing the same and use of the same for treating inflammatory disease” (KOREA RESEARCH INSTITUTE OF BIOSCIENCE AND BIOTECHNOLOGY, priority 2014, dated 2018).

Columns and labels:
[1] = Toxicity test, single oral administration: toxicological changes in abdomen, chest and major organs (autopsy); format: in vivo; conditions: for Clinical sign: Abdominal cavity (toxicological changes, animals affected/total) / Clinical sign: Major organs (toxicological changes, animals affected/total) / Clinical sign: Thoracic cavity (toxicological changes, animals affected/total) / Mortality (animals dead/total) / Clinical sign: Abdominal cavity (toxicological changes), Total / Clinical sign: Major organs (toxicological changes), Total / Clinical sign: Thoracic cavity (toxicological changes), Total / Mortality, Total: single oral administration, mouse
Excerpt: 1. Test Material and Control Material • Test material: compound of Example 4 • Storage condition: frozen storage • Control material: 10% DMSO+10% Tween 20 in PBS
2. Test System • Animal: female Balb/c • Animal provider: Koatech • Age and weight of animal • Age at the time of arrival: 5 week • Number at the time of arrival: 28 • Age at the start of administration: 6 week • Number at the start of administration: 28 ? • Weight at the start of administration: 16.1˜16.5 g
3. Administration Method and Preparation of Test Material • Administration method: single oral administration • Preparation of test material: Test materials were prepared by using 10% DMSO+10% Tween-20 in PBS as a solvent for each dose. The preparation was carried out immediately before the administration
On the 10th day after the administration, all the surviving animals were anesthetized with CO2 gas. Laparotomy was performed and the animals were sacrificed by venesection from the abdominal aorta. Then, all the internal organs of the animal were observed by the naked eye.
The compound of Example 4 was orally administered once to female Balb/c mouse at the doses of 250, 500, and 1000 mg/kg in order to obtain the information on acute toxicity of the compound of Example 4, followed by investigation of death rate, general symptoms, and weight changes for 10 days by autopsy.
After the administration of the compound of Example 4, the mice were autopsied on the last day, and the toxicological changes in the abdomen, chest and major organs were observed.

[2] = tested on: serum IgE; experiment: Level of serum IgE in asthma mice; format: in vivo, mouse; conditions: OVA asthma Balb/c mice, 5 or 15 mg/kg PO, FIG. 4
Method: 6 week old Balb/c female mice in the average weight of 20 g were adapted for 1 week. 2 mg of aluminum hydroxide (A8222, Sigma, St. Louis, Mo.) and 20 μg of ovalbumin (A5503, sigma, St. Louis, Mo.) were suspended in phosphate buffer (pH 7.4). Each mouse was administered with 200 μl of the phosphate buffer suspension via intraperitoneal injection for sensitization at 2 weeks intervals. The mouse was forced to inhale 1% ovalbumin (OVA) through ultrasonic atomizer for 30 minutes a day for 3 days after the first intraperitoneal injection of ovalbumin. 24 hours after the antigen administration, airway hyperreactivity was measured. 48 hours later, a lethal dose of pentobarbital (Entobar, Hanlim Pharma. Co., Ltd.) was administered to the mouse. The bronchus was opened and the alveoli were washed with 1.4 ml of saline. Then, the test samples were obtained. The normal control (NC) was not administered with ovalbumin nor inhaled. The asthma induced group (OVA) was administered with ovalbumin and inhaled to induce bronchial asthma. The comparative control was orally administered with dexamethasone (2 mg/kg, PO) one hour before the inhalation (DEX). […]
After performing the experiment of Experimental Example <3-1> above, the level of serum IgE relating to the severity of asthma was measured by enzyme immunoassay. […] Then, OD650 was measured.

COc1cc(CCCO)cc2cc(-c3ccc(C)cc3)oc12 [Example 4, 3-(7-methoxy-2-p-tolylbenzofuran-5-yl)propane-1-ol]
Clinical sign: Abdominal cavity (toxicological changes, animals affected/total) ([1]; 250 mg/kg, Day 1): 0/7
Clinical sign: Major organs (toxicological changes, animals affected/total) ([1]; 250 mg/kg, Day 1): 0/7
Clinical sign: Thoracic cavity (toxicological changes, animals affected/total) ([1]; 250 mg/kg, Day 1): 0/7
Mortality (animals dead/total) ([1]; 250 mg/kg, Day 1): 0/7
Clinical sign: Abdominal cavity (toxicological changes, animals affected/total) ([1]; 250 mg/kg, Day 7): 0/7
Clinical sign: Major organs (toxicological changes, animals affected/total) ([1]; 250 mg/kg, Day 7): 0/7
Clinical sign: Thoracic cavity (toxicological changes, animals affected/total) ([1]; 250 mg/kg, Day 7): 0/7
Mortality (animals dead/total) ([1]; 250 mg/kg, Day 7): 0/7
Clinical sign: Abdominal cavity (toxicological changes, animals affected/total) ([1]; 250 mg/kg, Day 8): 0/7
Clinical sign: Major organs (toxicological changes, animals affected/total) ([1]; 250 mg/kg, Day 8): 0/7
Clinical sign: Thoracic cavity (toxicological changes, animals affected/total) ([1]; 250 mg/kg, Day 8): 0/7
Mortality (animals dead/total) ([1]; 250 mg/kg, Day 8): 0/7
Clinical sign: Abdominal cavity (toxicological changes, animals affected/total) ([1]; 250 mg/kg, Day 9): 0/7
Clinical sign: Major organs (toxicological changes, animals affected/total) ([1]; 250 mg/kg, Day 9): 0/7
Clinical sign: Thoracic cavity (toxicological changes, animals affected/total) ([1]; 250 mg/kg, Day 9): 0/7
Mortality (animals dead/total) ([1]; 250 mg/kg, Day 9): 0/7
Clinical sign: Abdominal cavity (toxicological changes, animals affected/total) ([1]; 250 mg/kg, Day 10): 0/7
Clinical sign: Major organs (toxicological changes, animals affected/total) ([1]; 250 mg/kg, Day 10): 0/7
Clinical sign: Thoracic cavity (toxicological changes, animals affected/total) ([1]; 250 mg/kg, Day 10): 0/7
Mortality (animals dead/total) ([1]; 250 mg/kg, Day 10): 0/7
Clinical sign: Abdominal cavity (toxicological changes), Total ([1]; 250 mg/kg): 0
Clinical sign: Major organs (toxicological changes), Total ([1]; 250 mg/kg): 0
Clinical sign: Thoracic cavity (toxicological changes), Total ([1]; 250 mg/kg): 0
Mortality, Total ([1]; 250 mg/kg): 0
Clinical sign: Abdominal cavity (toxicological changes, animals affected/total) ([1]; 500 mg/kg, Day 1): 0/7
Clinical sign: Major organs (toxicological changes, animals affected/total) ([1]; 500 mg/kg, Day 1): 0/7
Clinical sign: Thoracic cavity (toxicological changes, animals affected/total) ([1]; 500 mg/kg, Day 1): 0/7
Mortality (animals dead/total) ([1]; 500 mg/kg, Day 1): 0/7
Clinical sign: Abdominal cavity (toxicological changes, animals affected/total) ([1]; 500 mg/kg, Day 7): 0/7
Clinical sign: Major organs (toxicological changes, animals affected/total) ([1]; 500 mg/kg, Day 7): 0/7
Clinical sign: Thoracic cavity (toxicological changes, animals affected/total) ([1]; 500 mg/kg, Day 7): 0/7
Mortality (animals dead/total) ([1]; 500 mg/kg, Day 7): 0/7
Clinical sign: Abdominal cavity (toxicological changes, animals affected/total) ([1]; 500 mg/kg, Day 8): 0/7
Clinical sign: Major organs (toxicological changes, animals affected/total) ([1]; 500 mg/kg, Day 8): 0/7
Clinical sign: Thoracic cavity (toxicological changes, animals affected/total) ([1]; 500 mg/kg, Day 8): 0/7
Mortality (animals dead/total) ([1]; 500 mg/kg, Day 8): 0/7
Clinical sign: Abdominal cavity (toxicological changes, animals affected/total) ([1]; 500 mg/kg, Day 9): 0/7
Clinical sign: Major organs (toxicological changes, animals affected/total) ([1]; 500 mg/kg, Day 9): 0/7
Clinical sign: Thoracic cavity (toxicological changes, animals affected/total) ([1]; 500 mg/kg, Day 9): 0/7
Mortality (animals dead/total) ([1]; 500 mg/kg, Day 9): 0/7
Clinical sign: Abdominal cavity (toxicological changes, animals affected/total) ([1]; 500 mg/kg, Day 10): 0/7
Clinical sign: Major organs (toxicological changes, animals affected/total) ([1]; 500 mg/kg, Day 10): 0/7
Clinical sign: Thoracic cavity (toxicological changes, animals affected/total) ([1]; 500 mg/kg, Day 10): 0/7
Mortality (animals dead/total) ([1]; 500 mg/kg, Day 10): 0/7
Clinical sign: Abdominal cavity (toxicological changes), Total ([1]; 500 mg/kg): 0
Clinical sign: Major organs (toxicological changes), Total ([1]; 500 mg/kg): 0
Clinical sign: Thoracic cavity (toxicological changes), Total ([1]; 500 mg/kg): 0
Mortality, Total ([1]; 500 mg/kg): 0
Clinical sign: Abdominal cavity (toxicological changes, animals affected/total) ([1]; 1000 mg/kg, Day 1): 0/7
Clinical sign: Major organs (toxicological changes, animals affected/total) ([1]; 1000 mg/kg, Day 1): 0/7
Clinical sign: Thoracic cavity (toxicological changes, animals affected/total) ([1]; 1000 mg/kg, Day 1): 0/7
Mortality (animals dead/total) ([1]; 1000 mg/kg, Day 1): 0/7
Clinical sign: Abdominal cavity (toxicological changes, animals affected/total) ([1]; 1000 mg/kg, Day 7): 0/7
Clinical sign: Major organs (toxicological changes, animals affected/total) ([1]; 1000 mg/kg, Day 7): 0/7
Clinical sign: Thoracic cavity (toxicological changes, animals affected/total) ([1]; 1000 mg/kg, Day 7): 0/7
Mortality (animals dead/total) ([1]; 1000 mg/kg, Day 7): 0/7
Clinical sign: Abdominal cavity (toxicological changes, animals affected/total) ([1]; 1000 mg/kg, Day 8): 0/7
Clinical sign: Major organs (toxicological changes, animals affected/total) ([1]; 1000 mg/kg, Day 8): 0/7
Clinical sign: Thoracic cavity (toxicological changes, animals affected/total) ([1]; 1000 mg/kg, Day 8): 0/7
Mortality (animals dead/total) ([1]; 1000 mg/kg, Day 8): 0/7
Clinical sign: Abdominal cavity (toxicological changes, animals affected/total) ([1]; 1000 mg/kg, Day 9): 0/7
Clinical sign: Major organs (toxicological changes, animals affected/total) ([1]; 1000 mg/kg, Day 9): 0/7
Clinical sign: Thoracic cavity (toxicological changes, animals affected/total) ([1]; 1000 mg/kg, Day 9): 0/7
Mortality (animals dead/total) ([1]; 1000 mg/kg, Day 9): 0/7
Clinical sign: Abdominal cavity (toxicological changes, animals affected/total) ([1]; 1000 mg/kg, Day 10): 0/7
Clinical sign: Major organs (toxicological changes, animals affected/total) ([1]; 1000 mg/kg, Day 10): 0/7
Clinical sign: Thoracic cavity (toxicological changes, animals affected/total) ([1]; 1000 mg/kg, Day 10): 0/7
Mortality (animals dead/total) ([1]; 1000 mg/kg, Day 10): 0/7
Clinical sign: Abdominal cavity (toxicological changes), Total ([1]; 1000 mg/kg): 0
Clinical sign: Major organs (toxicological changes), Total ([1]; 1000 mg/kg): 0
Clinical sign: Thoracic cavity (toxicological changes), Total ([1]; 1000 mg/kg): 0
Mortality, Total ([1]; 1000 mg/kg): 0
toxicological changes (abdomen, chest and major organs) ([1]; 250, 500, 1000 mg/kg single oral, autopsy on last day): not observed
generation of serum IgE induced by OVA [2]: efficiently reduced
